{"source": "patent US11371013B2", "about": "“Culture medium composition and method of culturing cell or tissue using thereof” (Nissan Chemical Industries, Ltd., priority 2012, dated 2022)", "assay_type_in_all_cases": "cell-based, human", "key": {"[1]": {"test_system": "HeLa cells", "assay": "HeLa cell proliferation test using Trametinib and MK-2206", "settings": "drug from day 1 for 5 days", "description": "(§1) This aqueous solution was sterilized at 121° C. for 20 min in an autoclave.\n(§2) Each plate was cultured by being stood still in a CO2 incubator (37° C., 5% CO2). […] The anticancer drugs used were Trametinib (manufactured by Santa Cruz, MEK inhibitor) and MK-2206 (manufactured by Santa Cruz, Akt inhibitor). To the culture medium on day 6 was added an ATP reagent (150 μL) (CellTiter-Glo (registered trade mark) Luminescent Cell Viability Assay, manufactured by Promega) to give a suspension, which was stood for about 10 min at room temperature, and the luminescence intensity (RLU value) was measured by FlexStation3 (manufactured by Molecular Devices), and the number of viable cells was measured by subtracting the luminescence value of the medium alone."}, "[2]": {"test_system": "A549 cells", "assay": "A549 cell proliferation test using Trametinib and MK-2206", "settings": "drug from day 1 for 5 days", "description": "This aqueous solution was sterilized at 121° C. for 20 min is in an autoclave.\nas §2"}, "[3]": {"test_system": "HeLa cells", "assay": "Cell proliferation test using various anticancer drugs", "settings": "HeLa cells 5 days later, DAG 0.030% medium", "description": "This aqueous solution was sterilized at 121° C. for 20 min in an autoclave. […] The anticancer drug used was Adriamycin (manufactured by WAKO), Paclitaxel (manufactured by WAKO) or Mitomycin C (manufactured by WAKO).\nSuccessively, this plate was cultured by being stood still in a CO2 incubator (37° C., 5% CO2) for 7 days. After culturing for 3, 5, 7 days, to the culture medium was added a WST-8 solution (manufactured by DOJINDO Laboratories, 20 μL), and the mixture was incubated at 37° C. for 100 min. The absorbance at 450 nm was measured by an absorbance spectrometer (manufactured by Molecular Devices, SPECTRA MAX 190), and the number of viable cells was measured by subtracting the absorbance of the medium alone. The culture medium containing the cells after 5 days of culture was stirred with a pipette and the obtained stirred solution (20 μL) was mixed with Trypan Blue stain 0.4% (manufactured by Invitrogen, 20 μL) and the cell density was measured under a microscope."}, "[4]": {"test_system": "HeLa cells", "assay": "Comparison with single layer culture method in cell proliferation test using agent for inducing apoptosis", "settings": "day 4", "description": "as §1\nEach plate was cultured by being stood still in a CO2 incubator (37° C., 5% CO2). […] To the culture medium on day 4 was added an ATP reagent (150 μL) (CellTiter-Glo (registered trade mark) Luminescent Cell Viability Assay, manufactured by Promega) to give a suspension, which was stood for about 10 min at room temperature, and the luminescence intensity (RLU value) was measured by FlexStation3 (manufactured by Molecular Devices), and the number of viable cells was measured by subtracting the luminescence value of the medium alone. For WST-8 measurement, a WST-8 solution (manufactured by is DOJINDO Laboratories, 15 μL) was added, the mixture was incubated at 37° C. for 100 min, the absorbance at 450 nm was measured by an absorbance spectrometer (manufactured by Molecular Devices, SPECTRA MAX 190), and the number of viable cells was measured by subtracting the absorbance of the medium alone."}, "[5]": {"settings": "0.001 μM, deacylated gellan gum addition group (0.015%)"}, "[6]": {"settings": "0.001 μM, single layer culture group"}, "[7]": {"settings": "0.01 μM, deacylated gellan gum addition group (0.015%)"}, "[8]": {"settings": "0.01 μM, single layer culture group"}, "[9]": {"settings": "0.1 μM, deacylated gellan gum addition group (0.015%)"}, "[10]": {"settings": "0.1 μM, single layer culture group"}, "[11]": {"settings": "1 μM, deacylated gellan gum addition group (0.015%)"}, "[12]": {"settings": "1 μM, single layer culture group"}, "[13]": {"settings": "0.03 μM, deacylated gellan gum addition group (0.015%)"}, "[14]": {"settings": "0.03 μM, single layer culture group"}, "[15]": {"settings": "0.3 μM, deacylated gellan gum addition group (0.015%)"}, "[16]": {"settings": "0.3 μM, single layer culture group"}, "[17]": {"settings": "3 μM, deacylated gellan gum addition group (0.015%)"}, "[18]": {"settings": "3 μM, single layer culture group"}, "[19]": {"settings": "30 μM, deacylated gellan gum addition group (0.015%)"}, "[20]": {"settings": "30 μM, single layer culture group"}, "[21]": {"settings": "0.003 μM, deacylated gellan gum addition group (0.015%)"}, "[22]": {"settings": "0.003 μM, single layer culture group"}, "[23]": {"settings": "10 μM, deacylated gellan gum addition group (0.015%)"}, "[24]": {"settings": "10 μM, single layer culture group"}, "[25]": {"settings": "100 μM, deacylated gellan gum addition group (0.015%)"}, "[26]": {"settings": "100 μM, single layer culture group"}}, "data": [{"molecule": "CC(=O)Nc1cccc(-n2c(=O)n(C3CC3)c(=O)c3c(Nc4ccc(I)cc4F)n(C)c(=O)c(C)c32)c1", "note": "[Trametinib]", "values": [{"measurement": "% Control of RLU value (ATP)", "setting": "[1]; [5]", "value": 73, "unit": "% Control"}, {"measurement": "% Control of RLU value (ATP)", "setting": "[1]; [6]", "value": 102, "unit": "% Control"}, {"measurement": "% Control of RLU value (ATP)", "setting": "[1]; [7]", "value": 12, "unit": "% Control"}, {"measurement": "% Control of RLU value (ATP)", "setting": "[1]; [8]", "value": 93, "unit": "% Control"}, {"measurement": "% Control of RLU value (ATP)", "setting": "[1]; [9]", "value": 1, "unit": "% Control"}, {"measurement": "% Control of RLU value (ATP)", "setting": "[1]; [10]", "value": 20, "unit": "% Control"}, {"measurement": "% Control of RLU value (ATP)", "setting": "[1]; [11]", "value": 1, "unit": "% Control"}, {"measurement": "% Control of RLU value (ATP)", "setting": "[1]; [12]", "value": 3, "unit": "% Control"}, {"measurement": "% Control of RLU value (ATP)", "setting": "[2]; [5]", "value": 72, "unit": "% Control"}, {"measurement": "% Control of RLU value (ATP)", "setting": "[2]; [6]", "value": 71, "unit": "% Control"}, {"measurement": "% Control of RLU value (ATP)", "setting": "[2]; [7]", "value": 35, "unit": "% Control"}, {"measurement": "% Control of RLU value (ATP)", "setting": "[2]; [8]", "value": 37, "unit": "% Control"}, {"measurement": "% Control of RLU value (ATP)", "setting": "[2]; [9]", "value": 2, "unit": "% Control"}, {"measurement": "% Control of RLU value (ATP)", "setting": "[2]; [10]", "value": 5, "unit": "% Control"}, {"measurement": "% Control of RLU value (ATP)", "setting": "[2]; [11]", "value": 0, "unit": "% Control"}, {"measurement": "% Control of RLU value (ATP)", "setting": "[2]; [12]", "value": 1, "unit": "% Control"}]}, {"molecule": "NC1(c2ccc(-c3nc4ccn5c(=O)[nH]nc5c4cc3-c3ccccc3)cc2)CCC1", "note": "[MK-2206]", "values": [{"measurement": "% Control of RLU value (ATP)", "setting": "[1]; [13]", "value": 57, "unit": "% Control"}, {"measurement": "% Control of RLU value (ATP)", "setting": "[1]; [14]", "value": 93, "unit": "% Control"}, {"measurement": "% Control of RLU value (ATP)", "setting": "[1]; [15]", "value": 21, "unit": "% Control"}, {"measurement": "% Control of RLU value (ATP)", "setting": "[1]; [16]", "value": 84, "unit": "% Control"}, {"measurement": "% Control of RLU value (ATP)", "setting": "[1]; [17]", "value": 21, "unit": "% Control"}, {"measurement": "% Control of RLU value (ATP)", "setting": "[1]; [18]", "value": 69, "unit": "% Control"}, {"measurement": "% Control of RLU value (ATP)", "setting": "[1]; [19]", "value": 0, "unit": "% Control"}, {"measurement": "% Control of RLU value (ATP)", "setting": "[1]; [20]", "value": 0, "unit": "% Control"}, {"measurement": "% Control of RLU value (ATP)", "setting": "[2]; [13]", "value": 84, "unit": "% Control"}, {"measurement": "% Control of RLU value (ATP)", "setting": "[2]; [14]", "value": 93, "unit": "% Control"}, {"measurement": "% Control of RLU value (ATP)", "setting": "[2]; [15]", "value": 45, "unit": "% Control"}, {"measurement": "% Control of RLU value (ATP)", "setting": "[2]; [16]", "value": 79, "unit": "% Control"}, {"measurement": "% Control of RLU value (ATP)", "setting": "[2]; [17]", "value": 21, "unit": "% Control"}, {"measurement": "% Control of RLU value (ATP)", "setting": "[2]; [18]", "value": 53, "unit": "% Control"}, {"measurement": "% Control of RLU value (ATP)", "setting": "[2]; [19]", "value": 0, "unit": "% Control"}, {"measurement": "% Control of RLU value (ATP)", "setting": "[2]; [20]", "value": 0, "unit": "% Control"}]}, {"molecule": "CC(=O)O[C@H]1C(=O)[C@@]2(C)[C@H]([C@H](OC(=O)c3ccccc3)[C@]3(O)C[C@H](OC(=O)[C@H](O)[C@@H](NC(=O)c4ccccc4)c4ccccc4)C(C)=C1C3(C)C)[C@]1(OC(C)=O)CO[C@@H]1C[C@@H]2O", "note": "[Paclitaxel]", "values": [{"measurement": "cell density", "setting": "[3]; 0.1 μM", "value": "0.9 10^4 cells/mL"}, {"measurement": "cell density", "setting": "[3]; 1 μM", "value": "0.2 10^4 cells/mL"}, {"measurement": "% Control of RLU value (ATP)", "setting": "[1]; [6]", "value": 89, "unit": "% Control"}, {"measurement": "% Control of RLU value (ATP)", "setting": "[1]; [21]", "value": 46, "unit": "% Control"}, {"measurement": "% Control of RLU value (ATP)", "setting": "[1]; [22]", "value": 15, "unit": "% Control"}, {"measurement": "% Control of RLU value (ATP)", "setting": "[1]; [7]", "value": 5, "unit": "% Control"}, {"measurement": "% Control of RLU value (ATP)", "setting": "[1]; [8]", "value": 2, "unit": "% Control"}, {"measurement": "% Control of RLU value (ATP)", "setting": "[2]; [5]", "value": 93, "unit": "% Control"}, {"measurement": "% Control of RLU value (ATP)", "setting": "[2]; [6]", "value": 81, "unit": "% Control"}, {"measurement": "% Control of RLU value (ATP)", "setting": "[2]; [21]", "value": 52, "unit": "% Control"}, {"measurement": "% Control of RLU value (ATP)", "setting": "[2]; [22]", "value": 31, "unit": "% Control"}, {"measurement": "% Control of RLU value (ATP)", "setting": "[2]; [7]", "value": 32, "unit": "% Control"}, {"measurement": "% Control of RLU value (ATP)", "setting": "[2]; [8]", "value": 16, "unit": "% Control"}]}, {"molecule": "C[C@@H]1C[C@@H]([C@H](O)CC2CC(=O)NC(=O)C2)C(=O)[C@@H](C)C1", "note": "[Cycloheximide]", "values": [{"measurement": "% Control of RLU value (ATP)", "setting": "[4]; [23]", "value": 9, "unit": "% Control"}, {"measurement": "% Control of absorbance at 450 nm (WST-8)", "setting": "[4]; [23]", "value": 4, "unit": "% Control"}, {"measurement": "% Control of RLU value (ATP)", "setting": "[4]; [24]", "value": 29, "unit": "% Control"}, {"measurement": "% Control of absorbance at 450 nm (WST-8)", "setting": "[4]; [24]", "value": 21, "unit": "% Control"}, {"measurement": "% Control of RLU value (ATP)", "setting": "[4]; [25]", "value": 4, "unit": "% Control"}, {"measurement": "% Control of absorbance at 450 nm (WST-8)", "setting": "[4]; [25]", "value": 1, "unit": "% Control"}, {"measurement": "% Control of RLU value (ATP)", "setting": "[4]; [26]", "value": 9, "unit": "% Control"}, {"measurement": "% Control of absorbance at 450 nm (WST-8)", "setting": "[4]; [26]", "value": 7, "unit": "% Control"}]}]}
